From patent publication US12509437B2, “Substituted thiophene carboxamides and derivatives thereof as microbicides” (Bayer Aktiengesellschaft, priority 2019, dated 2025) come the findings set out here.

The test system of one data set is Alternaria alternata. Kind of data set: Alternaria alternata in vitro cell test. In kind it is cell-based. Conditions: 120 h, 5 days incubation, read-out: efficacy (inhibition of fungal growth; no direct activity); for inhibition at 5 ppm: 5 ppm of active ingredient; for inhibition at 20 ppm: 20 ppm of active ingredient. As to the method: (§1) • Solvent: DMSO • Culture medium: 14.6 g anhydrous D-glucose (VWR), 7.1 g Mycological Peptone (Oxoid), 1.4 g granulated Yeast Extract (Merck), QSP 1 liter • Inoculum: spores suspension Fungicides were solubilized in DMSO and the solution used to prepare the required range of concentrations. The final concentration of DMSO used in the assay was ≤[…]1%. A spore suspension of A. alternata was prepared and diluted to the desired spore density. Fungicides were evaluated for their ability to inhibit spore germination and mycelium growth in liquid culture assay. The compounds were added in the desired concentration to the culture medium with spores. After 5 days incubation, fungi-toxicity of compounds was determined by spectrometric measurement of mycelium growth. Inhibition of fungal growth was determined by comparing the absorbance values in wells containing the fungicides with the absorbance in control wells without fungicides.

Data set [1] concerns Xanthomonas campestris pv. campestris. The data set is described as follows: Xanthomonas campestris pv. campestris in vitro cell test. Conditions: 24 h of incubation, read-out: efficacy (inhibition of bacteria growth; no direct activity); for inhibition at 5 ppm: 5 ppm of active ingredient; for inhibition at 20 ppm: 20 ppm of active ingredient. In kind it is cell-based. The procedure: (§2) • Solvent: DMSO • Culture medium: LB broth medium (Luria Broth Miller) Sigma • Inoculum: bacteria suspension Compounds were solubilized in DMSO and the solution used to prepare the required range of concentrations. The final concentration of DMSO used in the assay was ≤1%. Inoculum was prepared from a pre-culture of bacteria grown in liquid medium and diluted to the desired optical density (OD). Compounds were evaluated for their ability to inhibit bacteria growth in liquid culture assay. The compounds were added in the desired concentrations to culture medium containing the bacteria suspension. After 24 h of incubation, the efficacy of compounds was determined by spectrometric measurement of bacteria growth. Inhibition was determined by comparing the absorbance values in wells containing the compounds with the absorbance in control wells without active ingredients.

Another data set deals with Peronospora parasitica. The data set is described as follows: In vivo preventive test on Peronospora parasitica (Crucifer downy mildew) on cabbage. Conditions: Hyaloperonospora parasitica, 120 h, sprayed 72 hours before inoculation, evaluated 5 days after inoculation, read-out: efficacy; for pest or weed control at 31 ppm: 31 ppm of active ingredient; for pest or weed control at 125 ppm: 125 ppm of active ingredient; for pest or weed control at 500 ppm: 500 ppm of active ingredient. The procedure:
(§3) The tested active ingredients were prepared by homogenization in a mixture of acetone/Dimethyl sulfoxide/Tween®, and then diluted with water to obtain the desired active material concentration.
(§4) The young plants of cabbage were treated by spraying the active ingredient prepared as described above. Control plants were treated only with an aqueous solution of acetone/Dimethyl sulfoxide/Tween®.
After 72 hours, the plants were contaminated by spraying the leaves with an aqueous suspension of Peronospora parasitica spores. The contaminated cabbage plants were incubated for 5 days at 20° C. and at 100% relative humidity.
The test was evaluated 5 days after the inoculation. 0% means an efficacy which corresponds to that of the control plants while an efficacy of 100% means that no disease was observed.

In data set [2] the test system is Pseudomonas syringae pv. tomato. Kind of data set: Pseudomonas syringae pv. tomato in vitro cell test. Type of data set: cell-based. Conditions: 20 ppm of active ingredient, 24 h of incubation, read-out: efficacy (inhibition of bacteria growth; no direct activity). The procedure: as §2
For data set [3], the system named is Colletotrichum lindemuthianum. The data set is described as follows: Colletotrichum lindemuthianum in vitro cell test. Type of data set: cell-based. The settings on record: 144 h, 6 days incubation, read-out: efficacy (inhibition of fungal growth; no direct activity); for inhibition at 5 ppm: 5 ppm of active ingredient; for inhibition at 20 ppm: 20 ppm of active ingredient. As to the method:
as §1, with “of C. lindemuthianum” for “of A. alternata”, “inhibit spores” for “inhibit spore”, “After 6” for “After 5”

For the next data set, the system named is Uromyces appendiculatus. Kind of data set: In vivo preventive test on Uromyces appendiculatus (bean rust). Conditions: 240 h, sprayed 72 hours before inoculation, evaluated 10 days after inoculation, read-out: efficacy; for pest or weed control at 31 ppm: 31 ppm of active ingredient; for pest or weed control at 500 ppm: 500 ppm of active ingredient; for pest or weed control at 125 ppm: 125 ppm of active ingredient. As to the method:
as §3
The young plants of bean were treated by spraying the active ingredient prepared as described above. Control plants were treated only with an aqueous solution of acetone/Dimethyl sulfoxide/Tween®.
After 72 hours, the plants were contaminated by spraying the leaves with an aqueous suspension of Uromyces appendiculatus spores. The contaminated bean plants were incubated for 24 hours at 20° C. and at 100% relative humidity and then for 9 days at 20° C. and at 70-80% relative humidity.
The test was evaluated 10 days after the inoculation. 0% means an efficacy which corresponds to that of the control plants while an efficacy of 100% means that no disease was observed.

Data set [4] has as its system salicylate responsive promoter sequence of the PR1 (pathogenesis-related protein I) gene (AT2G14610). Kind of data set: Induction of defense gene expression in Arabidopsis thaliana (PR1 promoter-GFP reporter plants). In kind it is in vivo. Conditions: 72 h, 3rd day after spraying, mock treated leaves set as 1.00, read-out: relative fluorescence value. The procedure:
Arabidopsis thaliana reporter plants containing the coding sequence of a green fluorescent protein (GFP) linked to the salicylate responsive promoter sequence of the PR1 (pathogenesis-related protein I) gene (AT2G14610) were grown for five days and then sprayed with compounds. On the 3rd day after spraying, plant fluorescence was assessed with a MacroFluo instrument from Leica Microsystems (Wetzlar, Germany). Fluorescences were quantified with the Meta-Morph Microscopy Automation & Image Analysis Software (Molecular Devices, Sunnyvale, Calif., United States). Background fluorescence in mock treated leaves was set as 1.00.

The nature of data set [5]: LogP by HPLC on reversed phase columns (EEC directive 79/831 Annex V.A8). In kind it is physicochemical. Conditions: reversed phase HPLC columns. In a few lines: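 LogP derived from retention time, interpolated linearly between bracketing alkan-2-one standards (3 to 16 carbons). Where several values exist for one method, all are listed with "+"; UV spectra 200–400 nm at peak maxima gave lambda-max.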

The test system of data set [6] is Xanthomonas campestris pv. campestris. The data set is described as follows: In vivo preventive test on Xanthomonas campestris pv. campestris (black rot on cabbage). The settings on record: Xanthomonas campestris, sprayed 72 hours before inoculation, evaluated 8 or 10 days after inoculation, read-out: efficacy; for pest or weed control at 500 ppm: 500 ppm of active ingredient. The procedure: as §3, §4
After 72 hours, the plants were contaminated by spraying the leaves with an aqueous bacteria suspension of Xanthomonas campestris pv. campestris. The contaminated cabbage plants were incubated for 8 or 10 days at 27° C. at 95% relative humidity.
The test was evaluated 8 or 10 days after the inoculation. 0% means an efficacy which corresponds to that of the control plants while an efficacy of 100% means that no disease was observed.

Structures are written as SMILES. Where two headings read alike, the source gives them in different places.

On to `COC(=O)C1(NC(=O)c2sc(Br)c(Br)c2C)CSC1` [I.015], for which the inhibition (commonly how much of the control response was suppressed) at 5 ppm in the data set on Alternaria alternata was at most 30%. Besides, in data set [1], the inhibition at 5 ppm is at most 30% and the inhibition at 20 ppm was at most 30%. Besides, in the data set with Peronospora parasitica, the pest or weed control at 31 ppm is 90 to 100%, the pest or weed control at 125 ppm fell in the range of 90 to 100% and the pest or weed control at 500 ppm was 90 to 100%. Further, in data set [2], the inhibition at 20 ppm was at most 30%. In data set [3], the inhibition at 5 ppm is at most 30% and the inhibition at 20 ppm was at most 30%. Also, in the data set with Uromyces appendiculatus, the pest or weed control at 31 ppm fell in the range of 90 to 100% and the pest or weed control at 500 ppm lay in the range of 90 to 100%. For the same compound, in [4], the fold induction at 75 ppm was above 2 and the fold induction at 300 ppm is above 2. The chromatographic logP in [5] (method [a]) came out at 3.31.

With `CCOC(=O)C(CC(N)=O)NC(=O)c1sc(Br)c(Br)c1C` (stereo not shown) [I.016], the inhibition at 5 ppm (with Alternaria alternata; in data set [1]; in [3]) was at most 30% throughout. The inhibition at 20 ppm (in the data set on Alternaria alternata; in data set [1]; in [2]; in data set [3]) was at most 30% in each case. For the same compound, the pest or weed control at 31 ppm in the data set on Peronospora parasitica and with Uromyces appendiculatus was 90 to 100% throughout. In addition, the pest or weed control at 125 ppm with Peronospora parasitica and in the data set with Uromyces appendiculatus was 90 to 100% throughout. Moreover, the pest or weed control at 500 ppm with Peronospora parasitica is 90 to 100%; in the data set with Uromyces appendiculatus it was 80 to 89%. Moreover, in data set [4], the fold induction at 75 ppm is above 2. Moreover, the fold induction at 300 ppm in data set [4] was above 2. This compound yielded a chromatographic logP in [5] (method [a]) of 2.26.

In the case of `CCOC(=O)C(COC)NC(=O)c1sc(Br)c(Br)c1C` (stereo not shown) [I.034], the inhibition at 5 ppm (with Alternaria alternata; in data set [1]; in data set [3]) was at most 30% in each case. Also, the inhibition at 20 ppm (in the data set on Alternaria alternata; in [1]; in data set [2]) was at most 30% throughout. Moreover, the pest or weed control at 500 ppm in the data set with Uromyces appendiculatus is 90 to 100%; in [6], 80 to 89%. Also, the fold induction at 300 ppm in [4] was above 2. The same compound yielded a chromatographic logP in data set [5] (method [a]) of 3.46.

`COC(=O)[C@H](CCCNC(=N)N)NC(=O)c1sc(Br)c(Br)c1C` [I.035]: the inhibition at 5 ppm (in the data set with Alternaria alternata; in [1]; in [3]) was at most 30% each time. Further, the inhibition at 20 ppm in data set [1], in [2] and in [3] was at most 30% throughout. Besides, the pest or weed control at 125 ppm is 70 to 79% in the data set with Peronospora parasitica, 80 to 89% in the data set on Uromyces appendiculatus and 80 to 89% in data set [6] (125 ppm of active ingredient). For the same compound, the pest or weed control at 500 ppm with Peronospora parasitica and in the data set with Uromyces appendiculatus was 80 to 89% each time. The fold induction at 300 ppm in data set [4] was above 2. The compound further had a chromatographic logP in [5] (method [a]) of 1.74.

On to `CCSC(=O)C1(NC(=O)c2sc(Cl)c(Cl)c2C)CC1` [I.049, S-ethyl 1-{[(4,5-dichloro-3-methyl-2-thienyl)carbonyl]amino}cyclopropanecarbothioate], for which the inhibition at 5 ppm (in the data set on Alternaria alternata; in [1]; in data set [3]) was at most 30% each time. Moreover, the inhibition at 20 ppm in [1] and in data set [2] was at most 30% in each case. Also, the figures for the pest or weed control at 31 ppm (in the data set on Peronospora parasitica; with Uromyces appendiculatus; in [6] (31 ppm of active ingredient)) were 90 to 100%, 70 to 79% and 80 to 89%, respectively. For the same compound, the pest or weed control at 125 ppm with Peronospora parasitica and in the data set on Uromyces appendiculatus was 90 to 100% in each case. Further, the pest or weed control at 500 ppm in the data set on Peronospora parasitica is 90 to 100%; with Uromyces appendiculatus, 80 to 89%; in data set [6], 80 to 89%. Besides, the fold induction at 75 ppm in data set [4] was above 2. For the same compound, the fold induction at 300 ppm in [4] was above 2. For the same compound, in data set [5] (preparation examples, method not indicated, read-out: Log P), the chromatographic logP turned out to be 3.67.

Regarding `COC(=O)CC[C@H](NC(=O)c1sc(Br)c(Br)c1C)C(=O)OC` [I.136], in the data set on Alternaria alternata, the inhibition at 5 ppm is at most 30% and the inhibition at 20 ppm was at most 30%. Moreover, in data set [1], the inhibition at 5 ppm was at most 30% and the inhibition at 20 ppm is at most 30%. In addition, in the data set with Peronospora parasitica, the pest or weed control at 31 ppm was in the range of 80 to 89%, the pest or weed control at 125 ppm was 90 to 100% and the pest or weed control at 500 ppm lay within 90 to 100%. In data set [2], the inhibition at 20 ppm was at most 30%. Further, in data set [3], the inhibition at 5 ppm is at most 30% and the inhibition at 20 ppm is at most 30%. For the same compound, in the data set on Uromyces appendiculatus, the pest or weed control at 31 ppm is 90 to 100%, the pest or weed control at 125 ppm was 90 to 100% and the pest or weed control at 500 ppm was 90 to 100%. Besides, in [4], the fold induction at 75 ppm was above 2 and the fold induction at 300 ppm is above 2. In data set [5] (method [a]), the chromatographic logP worked out at 3.17.
